This note sets out measurements from patent US20140274688A1, “MOLECULES HAVING CERTAIN PESTICIDAL UTILITIES, AND INTERMEDIATES, COMPOSITIONS, AND PROCESSES RELATED THERETO” (DOW AGROSCIENCES LLC, priority 2013, published 2014).

The test system of data set [1] is Beet Armyworm (Spodoptera exigua) ("BAW"). The data set can be described thus: Bioassay on Beet Armyworm (BAW), 128-well diet tray assay, percent mortality. The settings on record: for BAW rating (percent mortality class): Beet Armyworm, 128-well diet tray assay; for pest or weed control at 50 µg/cm2: Spodoptera exigua, read-out: BAW. The class given is in vivo. An excerpt: (§1) Bioassays on Beet Armyworm (Spodoptera exigua) (“BAW”) and Cabbage Looper (Trichoplusia ni) (“CL”)
(§2) BAW has few effective parasites, diseases, or predators to lower its population. BAW infests many weeds, trees, grasses, legumes, and field crops. In various places, it is of economic concern upon asparagus, cotton, corn, soybeans, tobacco, alfalfa, sugar beets, peppers, tomatoes, potatoes, onions, peas, sunflowers, and citrus, among other plants. The Cabbage Looper is a member of the moth family Noctuidae. It is found throughout the world. It is attacks cabbage, cauliflower, broccoli, Brussel sprouts, tomatoes, cucumbers, potatoes, kale, turnips, mustard, peppers, eggplant, watermelons, melons, squash, cantaloupe, peas, beans, collards, lettuce, spinach, celery, parsley, beets, peas, alfalfa, soybeans, and cotton. This species is very destructive to plants due to its voracious consumption of leaves. In the case of cabbage, however, they feed not only on the wrapper leaves, but also may bore into the developing head. The larvae consume three times their weight in plant material daily. The feeding sites are marked by large accumulations of sticky, wet fecal material.
(§3) Consequently, because of the above factors control of these pests is important.
(§4) Certain molecules disclosed in this document were tested against BAW and CEW using procedures described in the following examples. In the reporting of the results, the “BAW & CL Rating Table” was used (See Table Section).
(§5) Trays were covered with a clear self-adhesive cover and held at 25° C., 14:10 light-dark for five to seven days. Percent mortality was recorded for the larvae in each well; activity in the eight wells was then averaged. The results are indicated in the table entitled “Table ABC: Biological Results” (See Table Section).

In data set [2] the test system is Cabbage Looper (Trichoplusia ni) ("CL"). Briefly: Bioassay on Cabbage Looper (CL), 128-well diet tray assay, percent mortality. The class given is in vivo. The following applies: for CL rating (percent mortality class): Cabbage Looper, 128-well diet tray assay; for pest or weed control at 50 µg/cm2: Trichoplusia ni, read-out: CL.
Source text: as §1, §2, §3, §4
Bioassays on Cabbage Looper in CL
as §5

On to `COc1ccc(NC(=S)NC(=O)NC2CC2c2ccc(-c3ncn(-c4ccc(OC(F)(F)F)cc4)n3)cc2)c(C)c1` (stereo not shown) [F26], for which the “BAW rating (percent mortality class)” value in data set [1] is reported as “A (50-100)”. Besides, in data set [2], the “CL rating (percent mortality class)” value is recorded as “A (50-100)”.

As for `CCc1ccc(C)cc1NC(=S)NC(=O)NC1CC1c1ccc(-c2ncn(-c3ccc(OC(F)(F)F)cc3)n2)cc1` (stereo not shown) [F27, N-(2-ethyl-5-methylphenyl)-N′-[2-(4-{1-[4-(trifluoromethoxy)phenyl]-1H-1,2,4-triazol-3-yl}phenyl)cyclopropyl]dicarbonimidothioic diamide], in data set [1], the “BAW rating (percent mortality class)” value was “A (50-100)”. The “CL rating (percent mortality class)” value in data set [2] was “A (50-100)”.

For `Cc1ccc(C(C)C)c(NC(=S)NC(=O)NC2CC2c2ccc(-c3ncn(-c4ccc(OC(F)(F)F)cc4)n3)cc2)c1` (stereo not shown) [F28, N-[5-methyl-2-(propan-2-yl)phenyl]-N′-[2-(4-{1-[4-(trifluoromethoxy)phenyl]-1H-1,2,4-triazol-3-yl}phenyl)cyclopropyl]dicarbonimidothioic diamide], the “BAW rating (percent mortality class)” value in data set [1] is on record as “A (50-100)”. In data set [2], the “CL rating (percent mortality class)” value is “A (50-100)”.

Consider `CCCc1ccccc1N1C(=O)CS/C1=N\C(=O)NC1CC1c1ccc(-c2ncn(-c3ccc(OC(F)(F)F)cc3)n2)cc1` (stereo not shown) [F30, (Z)-1-(4-oxo-3-(2-propylphenyl)thiazolidin-2-ylidene)-3-(2-(4-(1-(4-(trifluoromethoxy)phenyl)-1H-1,2,4-triazol-3-yl)phenyl)cyclopropyl)urea], for which, in data set [1], the “BAW rating (percent mortality class)” value is listed as “A (50-100)”. The “CL rating (percent mortality class)” value in data set [2] is “A (50-100)”.

On to `CCc1cccc(C)c1N1C(=O)CS/C1=N\C(=O)NC1CC1c1ccc(-c2ncn(-c3ccc(OC(F)(F)F)cc3)n2)cc1` (stereo not shown) [F31, (Z)-1-(3-(2-ethyl-6-methylphenyl)-4-oxothiazolidin-2-ylidene)-3-(2-(4-(1-(4-(trifluoromethoxy)phenyl)-1H-1,2,4-triazol-3-yl)phenyl)cyclopropyl)urea], for which the “BAW rating (percent mortality class)” value in data set [1] is given as “A (50-100)”. In data set [2], the “CL rating (percent mortality class)” value was “A (50-100)”.

As to `Cc1cccc(C)c1N1C(=O)CS/C1=N\C(=O)NC1CC1c1ccc(-c2ncn(-c3ccc(OC(F)(F)F)cc3)n2)cc1` (stereo not shown) [F32, (Z)-1-(3-(2,6-dimethylphenyl)-4-oxothiazolidin-2-ylidene)-3-(2-(4-(1-(4-(trifluoromethoxy)phenyl)-1H-1,2,4-triazol-3-yl)phenyl)cyclopropyl)urea], the “BAW rating (percent mortality class)” value in data set [1] was “A (50-100)”. Further, the “CL rating (percent mortality class)” value in data set [2] is “A (50-100)”.

Turning to `CCc1ccc(C)cc1N1C(=O)CS/C1=N\C(=O)NC1CC1c1ccc(-c2ncn(-c3ccc(OC(F)(F)F)cc3)n2)cc1` (stereo not shown) [F33, (Z)-1-(3-(2-ethyl-5-methylphenyl)-4-oxothiazolidin-2-ylidene)-3-(2-(4-(1-(4-(trifluoromethoxy)phenyl)-1H-1,2,4-triazol-3-yl)phenyl)cyclopropyl)urea], the “BAW rating (percent mortality class)” value in data set [1] is recorded as “A (50-100)”. Besides, the “CL rating (percent mortality class)” value in data set [2] is listed as “A (50-100)”.

`Cc1ccc(C(C)C)c(N2CCS/C2=N\C(=O)NC2CC2c2ccc(-c3ncn(-c4ccc(OC(F)(F)F)cc4)n3)cc2)c1` (stereo not shown) [F34, (Z)-1-(3-(2-isopropyl-5-methylphenyl)thiazolidin-2-ylidene)-3-(2-(4-(1-(4-(trifluoromethoxy)-phenyl)-1H-1,2,4-triazol-3-yl)phenyl)cyclopropyl)urea]: the “BAW rating (percent mortality class)” value in data set [1] is listed as “A (50-100)”. For the same molecule, the “CL rating (percent mortality class)” value in data set [2] is “A (50-100)”.

As for `Cc1ccccc1N1C(=O)CS/C1=N\C(=O)NCc1ccc(-c2ncn(-c3ccc(OC(F)(F)F)cc3)n2)cc1` [P1, (Z)-1-(4-oxo-3-(o-tolyl)thiazolidin-2-ylidene)-3-(4-(1-(4-(trifluoromethoxy)phenyl)-1H-1,2,4-triazol-3-yl)benzyl)urea], the pest or weed control at 50 µg/cm2 in data set [1] and in data set [2] was 50 to 100% each time.

With `CCc1ccccc1N1C(=O)CS/C1=N\C(=O)NCc1ccc(-c2ncn(-c3ccc(OC(F)(F)F)cc3)n2)cc1` [P2, (Z)-1-(3-(2-ethylphenyl)-4-oxothiazolidin-2-ylidene)-3-(4-(1-(4-(trifluoromethoxy)phenyl)-1H-1,2,4-triazol-3-yl)benzyl)urea], the pest or weed control at 50 µg/cm2 in data set [1] and in data set [2] was 50 to 100% throughout.

Turning to `CC(C)c1cc(F)ccc1N1C(=O)CS/C1=N\C(=O)NCc1ccc(-c2ncn(-c3ccc(OC(F)(F)F)cc3)n2)cc1` [P3, (Z)-1-(3-(4-fluoro-2-isopropylphenyl)-4-oxothiazolidin-2-ylidene)-3-(4-(1-(4-(trifluoromethoxy)phenyl)-1H-1,2,4-triazol-3-yl)benzyl)urea], the pest or weed control at 50 µg/cm2 in data set [1] and in data set [2] was 50 to 100% throughout.

In the case of `Cc1ccc(N2C(=O)CS/C2=N\C(=O)NCc2ccc(-c3ncn(-c4ccc(OC(F)(F)F)cc4)n3)cc2)c(C(C)C)c1` [P5, (Z)-1-(3-(2-isopropyl-4-methylphenyl)-4-oxothiazolidin-2-ylidene)-3-(4-(1-(4-(trifluoromethoxy)phenyl)-1H-1,2,4-triazol-3-yl)benzyl)urea], the pest or weed control at 50 µg/cm2 in data set [1] and in data set [2] was 50 to 100% each time.

Consider `COc1ccc(N2C(=O)CS/C2=N\C(=O)NCc2ccc(-c3ncn(-c4ccc(OC(F)(F)F)cc4)n3)cc2)c(C)c1` [P6, (Z)-1-(3-(4-methoxy-2-methylphenyl)-4-oxothiazolidin-2-ylidene)-3-(4-(1-(4-(trifluoromethoxy)phenyl)-1H-1,2,4-triazol-3-yl)benzyl)urea], for which the pest or weed control at 50 µg/cm2 in data set [1] and in data set [2] was 50 to 100% throughout.

As for `CCc1ccc(C)cc1N1C(=O)CS/C1=N\C(=O)NCc1ccc(-c2ncn(-c3ccc(OC(F)(F)F)cc3)n2)cc1` [P7, (Z)-1-(3-(2-ethyl-5-methylphenyl)-4-oxothiazolidin-2-ylidene)-3-(4-(1-(4-(trifluoromethoxy)phenyl)-1H-1,2,4-triazol-3-yl)benzyl)urea], the pest or weed control at 50 µg/cm2 in data set [1] and in data set [2] was 50 to 100% each time.

With `CCCc1ccc(C)cc1N1C(=O)CS/C1=N\C(=O)NCc1ccc(-c2ncn(-c3ccc(OC(F)(F)F)cc3)n2)cc1` [P8, (Z)-1-(3-(5-methyl-2-propylphenyl)-4-oxothiazolidin-2-ylidene)-3-(4-(1-(4-(trifluoromethoxy)phenyl)-1H-1,2,4-triazol-3-yl)benzyl)urea], the pest or weed control at 50 µg/cm2 in data set [1] and in data set [2] was 50 to 100% in each case.

In the case of `CC(C)c1ccccc1N1C(=O)CS/C1=N\C(=O)NCc1ccc(-c2ncn(-c3ccc(C(F)(F)F)cc3)n2)cc1` [P14, (Z)-1-(3-(2-isopropylphenyl)-4-oxothiazolidin-2-ylidene)-3-(4-(1-(4-(trifluoromethyl)phenyl)-1H-1,2,4-triazol-3-yl)benzyl)urea], the pest or weed control at 50 µg/cm2 in data set [1] and in data set [2] was 50 to 100% throughout.

Turning to `Cc1ccc(N2C(=O)CS/C2=N\C(=O)NCc2ccc(-c3ncn(-c4ccc(C(F)(F)F)cc4)n3)cc2)c(C(C)C)c1` [P15, (Z)-1-(3-(2-isopropyl-4-methylphenyl)-4-oxothiazolidin-2-ylidene)-3-(4-(1-(4-(trifluoromethyl)phenyl)-1H-1,2,4-triazol-3-yl)benzyl)urea], the pest or weed control at 50 µg/cm2 in data set [1] and in data set [2] was 50 to 100% in each case.

As for `Cc1ccc(C(C)C)c(N2/C(=N/C(=O)NCCc3ccc(-c4ncn(-c5ccc(OC(F)(F)F)cc5)n4)cc3)SCC2C)c1` (stereo not shown) [P58, (Z)-1-(3-(2-isopropyl-5-methylphenyl)-4-methylthiazolidin-2-ylidene)-3-(4-(1-(4-(trifluoromethoxy)phenyl)-1H-1,2,4-triazol-3-yl)phenethyl)urea], the pest or weed control at 50 µg/cm2 in data set [1] and in data set [2] was 50 to 100% each time.

For the molecule `Cc1ccc(C(C)C)c(N2CCCS/C2=N\C(=O)NCCc2ccc(-c3ncn(-c4ccc(OC(F)(F)F)cc4)n3)cc2)c1` [P59, (Z)-1-(3-(2-isopropyl-5-methylphenyl)-1,3-thiazinan-2-ylidene)-3-(4-(1-(4-(trifluoromethoxy)phenyl)-1H-1,2,4-triazol-3-yl)phenethyl)urea], the pest or weed control at 50 µg/cm2 in data set [1] and in data set [2] was 50 to 100% in each case.

On to `Cc1ccc(C(C)C)c(N2CC(C)CS/C2=N\C(=O)NCCc2ccc(-c3ncn(-c4ccc(OC(F)(F)F)cc4)n3)cc2)c1` (stereo not shown) [P64, (Z)-1-(3-(2-isopropyl-5-methylphenyl)-5-methyl-1,3-thiazinan-2-ylidene)-3-(4-(1-(4-(trifluoromethoxy)phenyl)-1H-1,2,4-triazol-3-yl)phenethyl)urea], for which the pest or weed control at 50 µg/cm2 in data set [1] and in data set [2] was 50 to 100% in each case.
